Activity data for 23 compounds are collected here from patent publication US7795290B2 (Genentech, Inc., priority 2004, dated 2010).

Assay in all cases: HTS ATP-utilizing enzyme assay, off-chip mobility-shift (Caliper HTS 250)
What all share (assay type): biochemical
Details in all cases: kinase named = inhibitory activity/selectivity; test compound 10 μM; active = greater than three-sigma from mean

Test [1] deals with CHEK2 (Homo sapiens, UniProt O96017). An excerpt: (§1) The following procedures describe the reagent and plate preparation for a HTS of an ATP-utilizing enzyme, such as a protein kinase, run in an off-chip mobility-shift assay format. The following provides an HTS protocol for running a protein kinase HTS screen on a Caliper HTS 250 microfluidics system. The following parameters are dependent on the protein kinase used and can be determined by one skilled in the art as part of a typical assay development process. For example, the peptide substrate used can be identified from the current literature, by screening a peptide library of potential protein kinase substrates, or by other applicable means accepted in the field.
CHEK2, sequence (O96017 whole entry): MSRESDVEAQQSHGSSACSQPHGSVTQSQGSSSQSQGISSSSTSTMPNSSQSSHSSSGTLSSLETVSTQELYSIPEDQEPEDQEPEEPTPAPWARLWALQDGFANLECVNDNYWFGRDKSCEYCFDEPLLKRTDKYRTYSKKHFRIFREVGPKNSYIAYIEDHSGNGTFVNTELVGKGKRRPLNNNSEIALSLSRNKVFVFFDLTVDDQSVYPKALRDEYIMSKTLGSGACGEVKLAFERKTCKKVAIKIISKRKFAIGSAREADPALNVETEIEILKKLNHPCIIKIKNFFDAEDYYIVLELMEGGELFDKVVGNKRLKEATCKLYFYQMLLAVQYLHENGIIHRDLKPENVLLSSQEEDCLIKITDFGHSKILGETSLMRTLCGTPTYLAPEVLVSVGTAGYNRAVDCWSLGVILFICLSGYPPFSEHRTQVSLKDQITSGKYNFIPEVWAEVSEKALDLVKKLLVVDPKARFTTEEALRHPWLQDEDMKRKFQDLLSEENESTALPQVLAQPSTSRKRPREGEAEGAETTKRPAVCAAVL
(§2) Assays to determine the kinase inhibitory activity of chemical entities of the present disclosure were performed using a Caliper HTS 250 microfluidics device, Greiner U-bottom assay plates, a Multidrop for transfer of reagents, and Biomek FX (AMNCBM03) software. Initially, 2.4 μL of a 1 mM solution of a test compound in 100% DMSO was added to a well of the Greiner U-bottom plate. A single Greiner U-bottom plate having 24×16 wells could include multiple test compounds. Next, 40 μL of 1.06× Assay Buffer was added to each well of the assay plate. Using the Biomek FX, 10 μL of 0.5 M EDTA was added by the span-8 to wells, indicated as 100% Control and 2.4 μL of 100% DMSO was added by the span-8 to wells, indicated as 0% Control. Using the Multidrop, 10 μL of 2.5× Enzyme Buffer, followed by 10 μL of 2.5× Substrate Buffer was added to each well of the assay plate. The total reaction volume in each well was 25 μL, and the concentration of the test compound was 10 μM. The assay plate was incubated for 2.5 hrs at 20° C. to 22° C. After the incubation period, using the Multidrop, 45 μL of 1.55× Termination Buffer was added to each well of the assay plate to stop the reaction. The inhibition of the ATP-utilizing enzyme, such as a particular protein kinase, was determined by measuring the ratio of the peptide substrate to phosphorylated product for each well of the assay plate using the Caliper HTS 250 system.
(§3) The use of three-sigma statistical limits represents a conservative method for declaring potential hits among targets. The three-sigma activity, as well as the mean population activity, can be different for each target enzyme. This method has an expected false positive rate, from an in-control measurement process, of […].
(§4) Each chemical entity listed in Table 2 was tested for protein kinase inhibitory activity according to the biological assays and definitions of protein kinase inhibitory activity as described herein. For each exemplary compound listed in Table 2, the inhibitory activity for at least one protein kinase according to the biological assays and definitions of protein kinase inhibitory activity as described herein is indicated.

Test [2] deals with T1, ZAP70 (Homo sapiens, UniProt P43403).
T1 sequence (P43403 1-619): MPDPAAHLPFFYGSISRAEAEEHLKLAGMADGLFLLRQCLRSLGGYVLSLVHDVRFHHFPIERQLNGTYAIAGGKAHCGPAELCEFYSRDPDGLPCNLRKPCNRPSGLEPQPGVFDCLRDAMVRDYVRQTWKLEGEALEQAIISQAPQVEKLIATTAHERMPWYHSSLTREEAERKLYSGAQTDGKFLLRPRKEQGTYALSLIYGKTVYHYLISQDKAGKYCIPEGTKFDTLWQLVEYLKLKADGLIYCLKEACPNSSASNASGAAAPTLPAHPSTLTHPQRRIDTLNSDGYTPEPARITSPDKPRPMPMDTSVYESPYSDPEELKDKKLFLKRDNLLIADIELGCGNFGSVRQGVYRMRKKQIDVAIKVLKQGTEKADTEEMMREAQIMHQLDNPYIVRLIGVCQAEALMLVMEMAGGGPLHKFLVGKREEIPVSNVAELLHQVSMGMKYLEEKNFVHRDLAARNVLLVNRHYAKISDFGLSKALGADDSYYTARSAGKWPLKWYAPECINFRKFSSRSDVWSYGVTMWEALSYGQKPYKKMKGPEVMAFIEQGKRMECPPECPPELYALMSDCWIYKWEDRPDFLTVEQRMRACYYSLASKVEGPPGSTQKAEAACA
Text: as §1, §2, §3, §4

Test [3] deals with T2, AKT1 (Homo sapiens, UniProt P31749).
T2 construct: purchased Upstate 14-276
T2 sequence (P31749 whole entry): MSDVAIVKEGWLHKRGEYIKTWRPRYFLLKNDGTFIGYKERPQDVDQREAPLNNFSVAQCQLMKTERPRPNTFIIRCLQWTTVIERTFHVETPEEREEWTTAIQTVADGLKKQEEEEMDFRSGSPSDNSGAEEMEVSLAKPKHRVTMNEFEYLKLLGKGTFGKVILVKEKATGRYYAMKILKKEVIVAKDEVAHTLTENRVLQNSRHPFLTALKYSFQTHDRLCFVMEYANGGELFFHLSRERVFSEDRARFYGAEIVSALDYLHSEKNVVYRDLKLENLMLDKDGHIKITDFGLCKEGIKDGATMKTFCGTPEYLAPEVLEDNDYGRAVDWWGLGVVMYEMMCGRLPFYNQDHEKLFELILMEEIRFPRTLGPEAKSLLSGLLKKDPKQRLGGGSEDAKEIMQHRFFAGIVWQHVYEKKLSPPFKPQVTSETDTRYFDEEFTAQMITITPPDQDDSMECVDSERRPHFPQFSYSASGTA
An outline of the steps: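 AKT1 activity was measured by off-chip mobility shift (Caliper HTS 250) as the ratio of peptide substrate to phosphorylated product. Test compound was at 10 μM, with 2.5 h incubation at 20–22° C. EDTA wells served as 100% control and DMSO wells as 0%. Hits were called at three-sigma limits.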

Test [4] deals with KIT (Homo sapiens, UniProt P10721).
KIT, sequence (P10721 26-976): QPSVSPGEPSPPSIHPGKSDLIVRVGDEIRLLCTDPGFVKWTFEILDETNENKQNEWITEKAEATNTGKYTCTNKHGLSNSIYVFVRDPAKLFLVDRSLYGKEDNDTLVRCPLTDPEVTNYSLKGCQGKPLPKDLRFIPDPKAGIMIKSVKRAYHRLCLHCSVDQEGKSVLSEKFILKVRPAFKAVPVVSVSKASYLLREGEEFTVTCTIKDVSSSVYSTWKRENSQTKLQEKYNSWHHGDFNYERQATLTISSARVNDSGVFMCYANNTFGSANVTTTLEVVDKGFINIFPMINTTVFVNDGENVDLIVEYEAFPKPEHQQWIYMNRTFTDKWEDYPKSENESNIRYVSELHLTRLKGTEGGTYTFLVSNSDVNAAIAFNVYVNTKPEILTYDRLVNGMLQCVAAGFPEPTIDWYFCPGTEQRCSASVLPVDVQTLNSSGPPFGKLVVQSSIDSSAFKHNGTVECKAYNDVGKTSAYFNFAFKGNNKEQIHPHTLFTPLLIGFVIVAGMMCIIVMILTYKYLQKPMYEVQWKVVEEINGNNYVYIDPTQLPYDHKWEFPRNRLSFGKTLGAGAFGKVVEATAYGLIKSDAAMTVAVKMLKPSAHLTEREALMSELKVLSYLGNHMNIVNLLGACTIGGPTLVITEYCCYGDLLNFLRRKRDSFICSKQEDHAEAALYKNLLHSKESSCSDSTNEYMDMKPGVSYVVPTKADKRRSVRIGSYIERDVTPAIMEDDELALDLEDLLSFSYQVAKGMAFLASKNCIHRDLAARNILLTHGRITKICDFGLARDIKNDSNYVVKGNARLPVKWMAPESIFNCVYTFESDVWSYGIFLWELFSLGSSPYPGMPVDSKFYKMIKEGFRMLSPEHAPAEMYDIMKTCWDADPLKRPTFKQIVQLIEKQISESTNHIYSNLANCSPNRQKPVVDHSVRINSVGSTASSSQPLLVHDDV
Text: as §1, §2, §3, §4

Test [5] deals with T3, DYRK2 (Homo sapiens, UniProt Q92630).
T3 sequence (Q92630 1-601): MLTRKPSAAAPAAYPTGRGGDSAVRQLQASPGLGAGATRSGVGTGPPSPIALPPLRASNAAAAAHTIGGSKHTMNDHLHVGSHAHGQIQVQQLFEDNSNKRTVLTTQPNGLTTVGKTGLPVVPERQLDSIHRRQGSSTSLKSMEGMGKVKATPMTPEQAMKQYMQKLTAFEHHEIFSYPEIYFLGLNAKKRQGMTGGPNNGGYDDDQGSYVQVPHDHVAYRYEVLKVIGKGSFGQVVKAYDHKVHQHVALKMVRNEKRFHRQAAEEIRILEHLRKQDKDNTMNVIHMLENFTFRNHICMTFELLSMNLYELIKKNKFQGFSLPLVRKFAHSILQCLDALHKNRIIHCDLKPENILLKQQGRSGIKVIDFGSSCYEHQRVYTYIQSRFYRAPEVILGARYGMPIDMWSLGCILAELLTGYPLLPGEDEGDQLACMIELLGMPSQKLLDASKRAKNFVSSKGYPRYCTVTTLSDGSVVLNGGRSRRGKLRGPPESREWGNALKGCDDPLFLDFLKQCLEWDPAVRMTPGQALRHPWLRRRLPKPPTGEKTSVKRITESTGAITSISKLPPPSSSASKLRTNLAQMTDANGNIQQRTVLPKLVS
Text: as §1, §2, §3, §4

With `CCN(CC)CCCN(C(=O)c1ccccc1Cl)c1nc(-c2cc(OC)ccc2OC)cs1` [2-chloro-N-(3-(diethylamino)propyl)-N-(4-(2,5-dimethoxyphenyl)thiazol-2-yl)benzamide], the Activity result in test [1] is recorded as “CHEK2”.
In the case of `COc1ccc(-c2csc(N(CCCN3CCOCC3)C(=O)c3ccccc3C#N)n2)cc1` [2-cyano-N-(4-(4-methoxyphenyl)thiazol-2-yl)-N-(3-morpholinopropyl)benzamide], in test [2], the Activity result is given as “ZAP70”.
For the compound `COc1ccc(-c2csc(N(CCCN3CCOCC3)C(=O)c3sccc3Br)n2)cc1` [3-bromo-N-(4-(4-methoxyphenyl)thiazol-2-yl)-N-(3-morpholinopropyl)thiophene-2-carboxamide], the Activity result in test [3] is recorded as “AKT1”; in test [2], “ZAP70”.
With `COc1ccc(-c2csc(N(CCCN3CCOCC3)C(=O)c3nsc(Cl)c3Cl)n2)cc1` [4,5-dichloro-N-(4-(4-methoxyphenyl)thiazol-2-yl)-N-(3-morpholinopropyl)isothiazole-3-carboxamide], the Activity result in test [2] is reported as “ZAP70”.
On the same count and under the same terms, under `COc1ccc(-c2csc(N(CCCN3CCOCC3)C(=O)c3ccc(C(C)=O)s3)n2)cc1` [5-acetyl-N-(4-(4-methoxyphenyl)thiazol-2-yl)-N-(3-morpholinopropyl)thiophene-2-carboxamide] stands “ZAP70”.
`COc1ccc(-c2csc(N(CCCN3CCOCC3)C(=O)c3ccc(Br)s3)n2)cc1` [5-bromo-N-(4-(4-methoxyphenyl)thiazol-2-yl)-N-(3-morpholinopropyl)thiophene-2-carboxamide]: the figures for the Activity entry in test [3] and in test [2] were “AKT1” and “ZAP70”, respectively.
For `COc1ccc(-c2csc(N(CCCN3CCOCC3)C(=O)c3cccc(Cl)n3)n2)cc1` [6-chloro-N-(4-(4-methoxyphenyl)thiazol-2-yl)-N-(3-morpholinopropyl)picolinamide], the figures for the Activity entry in test [3] and in test [2] were “AKT1” and “ZAP70”, respectively.
In the case of `CN1CCN(CCCN(C(=O)c2cccs2)c2nc(-c3ccccc3)cs2)CC1` [N-(3-(4-methylpiperazin-1-yl)propyl)-N-(4-phenylthiazol-2-yl)thiophene-2-carboxamide], the Activity entry in test [3] is “AKT1”; in test [1], “CHEK2”.
The like results for `CCN(CC)CCCN(C(=O)c1ccccc1F)c1nc(-c2cc(OC)ccc2OC)cs1` [N-(3-(diethylamino)propyl)-N-(4-(2,5-dimethoxyphenyl)thiazol-2-yl)-2-fluorobenzamide] were, in that order, “AKT1” and “CHEK2”.
The like results for `CN(C)CCCN(C(=O)c1ccccc1F)c1nc(-c2ccccc2)cs1` [N-(3-(dimethylamino)propyl)-2-fluoro-N-(4-phenylthiazol-2-yl)benzamide] were, in that order, “AKT1” and “CHEK2”.
With `O=C(c1cccs1)N(CCCN1CCOCC1)c1nc(-c2ccncc2)cs1` [N-(3-morpholinopropyl)-N-(4-(pyridin-4-yl)thiazol-2-yl)thiophene-2-carboxamide], the Activity result is “AKT1” in test [3] and “KIT” in test [4].
For the compound `COc1ccc(OC)c(-c2csc(N(CCCN3CCN(C)CC3)C(=O)c3ccco3)n2)c1` [N-(4-(2,5-dimethoxyphenyl)thiazol-2-yl)-N-(3-(4-methylpiperazin-1-yl)propyl)furan-2-carboxamide], the figures for the Activity result in test [3] and in test [1] were “AKT1” and “CHEK2”, respectively.
In the case of `COc1ccc(OC)c(-c2csc(N(CCCN(C)C)C(=O)c3ccccc3F)n2)c1` [N-(4-(2,5-dimethoxyphenyl)thiazol-2-yl)-N-(3-(dimethylamino)propyl)-2-fluorobenzamide], the Activity entry in test [3] is on record as “AKT1”; in test [1], “CHEK2”.
For the compound `COc1ccc(OC)c(-c2csc(N(CCCN(C)C)C(=O)c3cccs3)n2)c1` [N-(4-(2,5-dimethoxyphenyl)thiazol-2-yl)-N-(3-(dimethylamino)propyl)thiophene-2-carboxamide], the Activity entry in test [3] is given as “AKT1”; in test [1] it was “CHEK2”.
As to `COc1ccc(-c2csc(N(CCCN3CCOCC3)C(=O)CC(C)(C)C)n2)cc1` [N-(4-(4-methoxyphenyl)thiazol-2-yl)-3,3-dimethyl-N-(3-morpholinopropyl)butanamide], in test [5], the Activity result is reported as “DYRK2”.
As to `COc1ccc(-c2csc(N(CCCN3CCOCC3)C(=O)c3conc3C)n2)cc1` [N-(4-(4-methoxyphenyl)thiazol-2-yl)-3-methyl-N-(3-morpholinopropyl)isoxazole-4-carboxamide], the Activity result was “DYRK2” in test [5] and “ZAP70” in test [2].
As to `COc1ccc(-c2csc(N(CCCN3CCN(C)CC3)C(=O)c3ccccc3)n2)cc1` [N-(4-(4-methoxyphenyl)thiazol-2-yl)-N-(3-(4-methylpiperazin-1-yl)propyl)benzamide], the Activity entry in test [3] is listed as “AKT1”; in test [1] it was “CHEK2”.
As for `CCC(=O)N(CCCOC)c1nc(-c2ccc(OC)cc2)cs1` [N-(4-(4-methoxyphenyl)thiazol-2-yl)-N-(3-methoxypropyl)propionamide], the Activity result in test [5] is given as “DYRK2”.
As to `COc1ccc(-c2csc(N(CCCN3CCOCC3)C(C)=O)n2)cc1` [N-(4-(4-methoxyphenyl)thiazol-2-yl)-N-(3-morpholinopropyl)acetamide], the Activity entry in test [5] was “DYRK2”.
`COc1ccc(-c2csc(N(CCCN3CCOCC3)C(=O)c3ccco3)n2)cc1` [N-(4-(4-methoxyphenyl)thiazol-2-yl)-N-(3-morpholinopropyl)furan-2-carboxamide]: the values for the Activity result in test [3] and in test [5] were “AKT1” and “DYRK2”, respectively.
`CCC(=O)N(CC1CCCO1)c1nc(-c2ccc(OC)cc2)cs1` (stereo not drawn) [N-(4-(4-methoxyphenyl)thiazol-2-yl)-N-((tetrahydrofuran-2-yl)methyl)propionamide]: the Activity entry in test [5] is “DYRK2”.
The same measure, in the same setting: the entry for `COc1ccc(-c2csc(N(C)C(C)=O)n2)cc1` [N-(4-(4-methoxyphenyl)thiazol-2-yl)-N-methylacetamide] is “DYRK2”; for `CCC(=O)N(CC)c1nc(-c2ccc(OC)cc2)cs1` [N-ethyl-N-(4-(4-methoxyphenyl)thiazol-2-yl)propionamide] it is “DYRK2”.
